Test results reported in patent publication US5610063A, “cDNA for α-N-acetyl-galactosaminidase from Gallus domesticus” (Curators of the University of Missouri, priority 1995, dated 1997).

T1: Gallus N-acetyl-α-D-galactosaminidase (Gallus gallus, UniProt Q90744)
T1 construct: the cDNA clone corresponds to the region of the mRNA encoding the mature polypeptide for the chicken α-N-acetyl-galactosaminidase; from tissue; host or cells: chicken liver
T1 sequence (Q90744 1-405 S162A): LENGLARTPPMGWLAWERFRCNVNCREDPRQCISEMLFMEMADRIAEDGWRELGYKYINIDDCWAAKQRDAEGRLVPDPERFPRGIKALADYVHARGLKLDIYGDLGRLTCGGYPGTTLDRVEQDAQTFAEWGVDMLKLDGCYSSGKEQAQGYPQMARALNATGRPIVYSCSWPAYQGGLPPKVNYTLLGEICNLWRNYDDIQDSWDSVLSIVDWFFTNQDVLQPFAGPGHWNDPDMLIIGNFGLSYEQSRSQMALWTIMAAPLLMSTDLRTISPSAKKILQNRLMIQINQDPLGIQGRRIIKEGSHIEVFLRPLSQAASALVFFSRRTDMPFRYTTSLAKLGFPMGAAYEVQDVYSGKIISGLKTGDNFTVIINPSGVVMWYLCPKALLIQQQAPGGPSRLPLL


How the values were obtained:
[1] = biological target: T1, Gallus N-acetyl-α-D-galactosaminidase; assay: Substrate specificity (relative activity); assay type: biochemical, Gallus domesticus; settings: % of enzyme activity on the corresponding conjugate, 2.5 mM PNP conjugates, pH 3.5
[2] = substrate: O=[N+]([O-])c1ccc(O[C@H]2O[C@H](CO)[C@H](O)[C@H](O)[C@H]2O)cc1; assay: Kinetic parameters (Km, turnover number) of Gallus enzyme; assay type: biochemical, Gallus domesticus; settings: other: Table III, Example 1 preparation, 50 mM Na citrate + 1 mg/ml BSA, pH 3.5, mean of six determinations, 37.0 °C
Description: (§1) The Kms for ONP- and PNP-N-acetyl-α-D-galactosaminide were determined by varying the substrate concentration in 50 mM Na citrate+1 mg/ml BSA, pH 3.5.

[3] = substrate: CC(=O)N[C@H]1[C@@H](Oc2ccccc2[N+](=O)[O-])O[C@H](CO)[C@H](O)[C@@H]1O; assay: as above; assay type: biochemical, Gallus domesticus; settings: other: Table III, Example 1 preparation, 50 mM Na citrate + 1 mg/ml BSA, pH 3.5, mean of six determinations, 37.0 °C
Description: as §1

[4] = substrate: CC(=O)N[C@H]1[C@@H](Oc2ccc([N+](=O)[O-])cc2)O[C@H](CO)[C@H](O)[C@@H]1O; assay: as above; assay type: biochemical, Gallus domesticus
Description: as §1

[5] = Enzymatic activity quantitated during the purification; assay type: biochemical; settings: Table V, improved (batch) purification; mean from three different preps
Description: Enzymatic activity was quantitated during the purification by measuring production of p-nitrophenol (PNP) from PNP-N-acetyl-α-D-galactosaminide or o-nitrophenol (ONP) from ONP-N-acetyl-α-D-galactosaminide. Enzyme aliquots were incubated in 200 μl of 50 mM Na citrate+1 mg/ml BSA+1.0 mM PNP-N-acetyl-α-D-galactosaminide, pH 3.5, at 37° C. The reactions were quenched with 1.0 ml of 0.25M Na2 CO3 and the OD 405 nm was measured. One unit of activity was defined as 1.0 μmole of substrate hydrolyzed per minute.

[6] = Table IV, Example 1 preparation
[7] = Table VI, improved purification (Example 2)
[8] = other: Example 2 batch preparation, pH 3.5, N=3, 37.0 °C
[9] = other: Table III, Example 1 preparation, 50 mM Na citrate + 1 mg/ml BSA, pH 3.5, mean of six determinations, 37.0 °C

Relative Activity [1, 6] [%] | Relative Activity [1, 7] [%] | Molecule | further results
< 0.08 | < 0.08 | O=[N+]([O-])c1ccc(O[C@@H]2O[C@H](CO)[C@H](O)[C@H](O)[C@H]2O)cc1 [PNP-β-D-galactopyranoside] | 
< 0.08 | < 0.08 | O=[N+]([O-])c1ccc(O[C@@H]2OC[C@H](O)[C@H](O)[C@H]2O)cc1 [PNP-α-L-arabinopyranoside] | 
< 0.08 | < 0.08 | C[C@@H]1O[C@@H](Oc2ccc([N+](=O)[O-])cc2)[C@@H](O)[C@H](O)[C@@H]1O [PNP-α-L-fucopyranoside] | 
< 0.08 | < 0.08 | O=[N+]([O-])c1ccc(O[C@H]2O[C@H](CO)[C@@H](O)[C@H](O)[C@H]2O)cc1 [PNP-α-D-glucopyranoside] | 
< 0.08 | < 0.08 | C[C@@H]1O[C@H](Oc2ccc([N+](=O)[O-])cc2)[C@@H](O)[C@H](O)[C@@H]1O [PNP-β-L-fucopyranoside] | 
< 0.08 | < 0.08 | O=[N+]([O-])c1ccc(O[C@@H]2O[C@H](CO)[C@@H](O)[C@H](O)[C@H]2O)cc1 [PNP-β-D-glucopyranoside] | 

More lines, now with the values behind:

Molecule | Relative Activity [1, 6] [%] | Relative Activity [1, 7] [%] | further results
CC(=O)N[C@H]1[C@@H](Oc2ccc([N+](=O)[O-])cc2)O[C@H](CO)[C@H](O)[C@@H]1O [PNP-N-acetyl-α-D-galactosaminide] | 100.00 | 100.00 | 
CC(=O)N[C@H]1[C@H](Oc2ccc([N+](=O)[O-])cc2)O[C@H](CO)[C@H](O)[C@@H]1O [PNP-N-acetyl-β-D-galactosaminide] | < 0.08 | < 0.08 | 
CC(=O)NC1C(O)CC(Oc2ccc3c(C)cc(=O)oc3c2)(C(=O)O)OC1C(O)C(O)CO (stereo not drawn) [4-MU-N-acetyl-α-neuraminic acid] | < 0.01 | < 0.01 | 
Cc1cc(=O)oc2cc(O[C@H]3O[C@H](CO)[C@H](O)[C@H](O)[C@H]3O)ccc12 [4-MU-α-D-galactopyranoside] | 100.00 | 100.00 | 
CC(=O)N[C@H]1[C@@H](Oc2ccc([N+](=O)[O-])cc2)O[C@H](CO)[C@@H](O)[C@@H]1O [PNP-N-acetyl-α-D-glucosaminide] | < 0.08 | < 0.08 | 
CC(=O)N[C@H]1[C@H](Oc2ccc([N+](=O)[O-])cc2)O[C@H](CO)[C@@H](O)[C@@H]1O [PNP-N-acetyl-β-D-glucosaminide] | < 0.08 | < 0.08 | 
Gallus N-acetyl-α-D-galactosaminidase (Gallus gallus) (protein, the cDNA clone corresponds to the region of the mRNA encoding the mature polypeptide for the chicken α-N-acetyl-galactosaminidase; from tissue; host or cells: chicken liver) LENGLARTPPMGWLAWERFRCNVNCREDPRQCISEMLFMEMADRIAEDGWRELGYKYINIDDCWAAKQRDAEGRLVPDPERFPRGIKALADYVHARGLKLDIYGDLGRLTCGGYPGTTLDRVEQDAQTFAEWGVDMLKLDGCYSSGKEQAQGYPQMARALNATGRPIVYSCSWPAYQGGLPPKVNYTLLGEICNLWRNYDDIQDSWDSVLSIVDWFFTNQDVLQPFAGPGHWNDPDMLIIGNFGLSYEQSRSQMALWTIMAAPLLMSTDLRTISPSAKKILQNRLMIQINQDPLGIQGRRIIKEGSHIEVFLRPLSQAASALVFFSRRTDMPFRYTTSLAKLGFPMGAAYEVQDVYSGKIISGLKTGDNFTVIINPSGVVMWYLCPKALLIQQQAPGGPSRLPLL |  |  | Km [2]: 10700 µM; kcat [2]: 201 Moles of substrate hydrolyzed per mole of enzyme per minute; Km [3]: 2400 µM; kcat [3]: 637 Moles of substrate hydrolyzed per mole of enzyme per minute; Km [4, 8]: 0.86, S.D.=0.03 mM; kcat [4, 8]: 3318, S.D.=118.5 moles substrate/mole enzyme/minute; Km [4, 9]: 1190 µM; kcat [4, 9]: 2370 Moles of substrate hydrolyzed per mole of enzyme per minute
Affinity Concentrate: purified α-N-acetyl-galactosaminidase after affinity column and concentration (Example 2) (protein, UniProt Q90744 1-405, looked up) Alpha-N-acetylgalactosaminidas …: LENGLARTPPMGWLAWERFRCNVNCREDPRQCISEMLFMEMADRIAEDGWRELGYKYINIDDCWAAKQRDAEGRLVPDPERFPRGIKALADYVHARGLKLDIYGDLGRLTCGGYPGTTLDRVEQDAQTFAEWGVDMLKLDGCYSSGKEQAQGYPQMARALNSTGRPIVYSCSWPAYQGGLPPKVNYTLLGEICNLWRNYDDIQDSWDSVLSIVDWFFTNQDVLQPFAGPGHWNDPDMLIIGNFGLSYEQSRSQMALWTIMAAPLLMSTDLRTISPSAKKILQNRLMIQINQDPLGIQGRRIIKEGSHIEVFLRPLSQAASALVFFSRRTDMPFRYTTSLAKLGFPMGAAYEVQDVYSGKIISGLKTGDNFTVIINPSGVVMWYLCPKALLIQQQAPGGPSRLPLL |  |  | Specific Activity [5]: 71.03 µmol/mg/min
